Values after ≈ are worked out from the molar mass of the structure shown.
Key:
[1] = Rate of the reaction between N-acetyl-L-cysteine and chalcones, HPLC; type: physicochemical; conditions: methanol-water-potassium phosphate buffer pH 7.5, 30° C.; first order
Excerpt: The decline of the chalcone concentration was followed by HPLC. The following experimental setups were used: 1. […] 2. […] This system was used i the case of 4′-methoxychalcone. The rate of decline of the chalcone concentration was followed by HPLC. The rate constant was estimated using Grafit and assuming that the reaction followed first order kinetic; i.e.: [c]=[c0]exp(−kt) where [c] is the concentration of the chalcone in question at time t, [c0] is the concentration of the chalcone in question at time zero, k is the rate constant, and t the time.

[2] = tested on: chloroquine resistant P. falciparum DD2 strain; assay: In vitro growth of P. falciparum DD2, 3H-hypoxanthine uptake (Example 15); type: cell-based, Plasmodium falciparum; conditions: title: percentage inhibition of 3H-hypoxanthine uptake
L. major promastigotes [3] = assay: In vitro growth of L. major promastigotes, 3H-thymidine uptake (Example 4); type: cell-based, Leishmania major; conditions: in vitro L. major growth test
L. major promastigotes [4] = assay: L. major promastigotes from 4-days cultures, 3H-thymidine uptake (Examples 5, 14); type: cell-based, Leishmania major; conditions: Leishmania major, Table 14.1, read-out: percentage inhibition of promastigotes (upper figure)
Procedure, shortened: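 Promastigotes harvested on day 4 of culture were exposed to compound, then pulsed with 100 μC 3H-thymidine for a further 18 h. Cells were collected on filter paper, washed, and incorporated radioactivity counted by scintillation.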

[5] = tested on: chloroquine-sensitive P. falciparum 3D7A strain; assay: In vitro growth of P. falciparum 3D7A, 3H-hypoxanthine uptake (Example 15); type: cell-based, Plasmodium falciparum; conditions: for Percentage inhibition of 3H-hypoxanthine uptake (mean ± SEM): title: percentage inhibition of 3H-hypoxanthine uptake
[6] = 4-Hydroxychalcone toxicity study in mice, i.p. (Example 22); type: in vivo, BALB/c female mice; conditions: for No. died after 24 h: n 4
Experimental: Mice. BALB/c female mice, 8 weeks old, 20 g body weight.
Drug. 4Hydroxychalcone prepared as in Example 2.
LD50. 80 mg of 4hydroxychalcone was dissolved in 0.2 ml of 99% (v/v) ethanol, and then mixed with 240 mg of Brij 35 dissolved in 19.8 ml of buffer pH 73 (NaH2PO4.H2O 26 mg, Na2HPO4.2H2O 520 mg and distilled water 100 ml), and then sterile filtered through a 0.22 μm Millipore filter. Drug was injected intraperitoneally into mice once.

human lymphocytes = assay: Lymphocyte Proliferation Assay, 3H-thymidine incorporation (Example 13); conditions: Homo sapiens, Lymphocyte, read-out: inhibition of lymphocytes (lower figure)
P. falciparum = P. falciparum growth in vitro (Table 14.1, strain not stated); type: cell-based; conditions: Plasmodium falciparum, read-out: inhibition of malaria parasites (middle figure) (converted)
Experimental: The P. falciparum experimental setup was as described in Example 15.
Testing of the effect of drugs and serum on the in vitro growth of the parasites. The experiments in which compounds were tested for their ability to inhibit parasite growth were performed by a modification of the method originally described by Jensen et al. (1982). Fifty μl of parasitized erythrocytes (parasitemia approximately 1%) in a concentration of 5×10^8/ml and 50 μl of RPMI medium containing different concentrations of the test compound was added to each well of a 96 well flat-bottomed microtiter plate (Nunc). The cultures were then incubated for 48 hours, 24 hours before termination of the culture adding 20 μl of 3-H-hypoxanthine (40 uCi/ml) (New England Nuclear, Boston, Mass., USA) was added to each well. The cultures were then harvested onto glass fiber filters using a Skatron cell harvester (Skatron, Lierbyen, Norway), and the incorporation of 3-H-hypoxanthine into the DNA of dividing parasites was determined by liquid scintillation spectrometry.

Compound: C=CCOc1ccc(C(=O)CCc2ccc(OC)cc2OC)cc1
- Estimated rate constant k [1]: 0.0011 min⁻¹

Compound: C=CC(C)(OC)c1cc(CCC(=O)c2ccc(O)cc2)c(OC)cc1O (stereo not shown)
- Estimated rate constant k [1]: 0.00058 min⁻¹

Compound: C=CCOc1ccc(C(=O)/C=C/c2cccc(OC)c2OC)cc1 [2,3-Dimethoxy-4′-allyloxychalcone, 2,3-dimethoxy-4′-prop-2-enyloxychalcone]
- Growth in % of control (mean ± SEM) ([2]; 0.5 μg/ml): 28.5 ± 9.6%
- Growth in % of control (mean ± SEM) ([2]; 1 μg/ml): 29.6 ± 10.9%
- Growth in % of control (mean ± SEM) ([2]; 5 μg/ml): 22.2 ± 10.1%
- Growth in % of control (mean ± SEM) ([2]; 10 μg/ml): 49.9 ± 9.1%
- melting point: 98 to 99 °C

Compound: C=CCOc1ccc(C(=O)/C=C/c2c(OC)cccc2OC)cc1 [2,6-Dimethoxy-4′-allyloxychalcone, 2,6-dimethoxy-4′-prop-2-enyloxychalcone]
- Growth in % of control (mean ± SEM) ([2]; 0.5 μg/ml): 23.3 ± 10.9%
- Growth in % of control (mean ± SEM) ([2]; 1 μg/ml): 24.3 ± 9.5%
- Growth in % of control (mean ± SEM) ([2]; 5 μg/ml): 40.2 ± 8.7%
- Growth in % of control (mean ± SEM) ([2]; 10 μg/ml): 56.7 ± 8.9%
- melting point: 102 to 103 °C

Compound: CC(C)=CCc1cc(/C=C/C(=O)c2ccc(O)c(CC=C(C)C)c2O)ccc1O [4,2′,4′-trihydroxy-3,3′-di-(3-methylbut-2-enyl)chalcone]
- antiparasitic effect in bioassay-guided fractionation (L. major promastigotes [3]): showed major antiparasitic effects

Compound: O=C(/C=C/c1ccc(O)cc1)c1ccccc1 [4-Hydroxychalcone, 4-hydroxychalcone]
- inhibition at 0.5 µg/mL (L. major promastigotes [4]; 0.5 μg/ml): 7%
- inhibition at 1 µg/mL (L. major promastigotes [4]; 1 μg/ml): 49.1 ± 16.8%
- inhibition at 5 µg/mL (L. major promastigotes [4]; 5 μg/ml): 80.1 ± 12.6%
- inhibition at 10 µg/mL (L. major promastigotes [4]; 10 μg/ml): 91 ± 5.4%
- IC50 ([5]; Plasmodium falciparum, read-out: concentration in which growth was retarded by 50%): 1 to 5 µg/mL (≈ 4.46 to 22.3 µM)
- Percentage inhibition of 3H-hypoxanthine uptake (mean ± SEM) ([5]; 0.5 μg/ml): 20.5 ± 10.9%
- Percentage inhibition of 3H-hypoxanthine uptake (mean ± SEM) ([5]; 1 μg/ml): 29.2 ± 7.7%
- Percentage inhibition of 3H-hypoxanthine uptake (mean ± SEM) ([5]; 5 μg/ml): 61.3 ± 10.6%
- Percentage inhibition of 3H-hypoxanthine uptake (mean ± SEM) ([5]; 10 μg/ml): 88.2 ± 5.3%
- No. died after 24 h ([6]; 50 mg/kg i.p.): 0
- No. died after 24 h ([6]; 100 mg/kg i.p.): 0
- No. died after 24 h ([6]; 200 mg/kg i.p.): 1
- No. died after 24 h ([6]; 400 mg/kg i.p.): 2
- LD50, intraperitoneally ([6]; mice): 400 mg per kg
- inhibition at 1 µg/mL (human lymphocytes): 2.24%
- inhibition at 5 µg/mL (human lymphocytes): 7.73%
- inhibition at 10 µg/mL (human lymphocytes): 14.2%
- inhibition at 0.5 µg/mL (P. falciparum; 0.5 μg/ml): 20.5%
- inhibition at 1 µg/mL (P. falciparum; 1 μg/ml): 29.2%
- inhibition at 5 µg/mL (P. falciparum; 5 μg/ml): 61.3%
- inhibition at 10 µg/mL (P. falciparum; 10 μg/ml): 88.2%

Reference: US6603046B1, “Bis-aromatic a,β-unsaturated ketones” (Lica Pharmaceuticals A/S, priority 1992, dated 2003)
